The test system of one series is Aβ deposits. The conditions noted are these: 9 weeks; for Tg Mice % difference from control in Amyloid plaque abundance / Tg Mice % difference from control in insoluble brain amyloid burden / Tg Mice % difference from control in soluble brain amyloid burden: daily oral gavage 30 mg/kg, 13-14 months old transgenic mice.
Series [1] in a line: Toxicity, visual observations in mice. The conditions noted are these: duration and visual observations.
Series [2] is described as follows: Mice plasma concentration after oral dose. The series is classed as in vivo. The conditions noted are these: for Mice plasma concentration: 30 min to 4 h after single or repeat oral dose of 30 mg/kg.
Series [3] relates to M17 human neuroblastoma cells. As to the kind of experiment: Cytotoxicity, M17 human neuroblastoma cells. The series is classed as cell-based. The conditions noted are these: for Cytotox (% viable) M17 cells at 1 μM: 1 μM test compound; for Cytotox (% viable) M17 cells at 10 μM: 10 μM test compound. The procedure:
Assay 3. MTS Assay for Cell Viability
Cell viability is determined using the MTS assay. Culture medium is replaced with fresh neurobasal medium plus B27 supplements minus antioxidants. 1/10th volume MTS solution (Cell Titre 96 Aqueous One, Promega Corporation) and incubated at 37° C., 2 hrs. 200 microliter aliquots are measured with a spectrophotometer at 560 nm.

For series [4], the system named is dityrosine oligomerization. As to the kind of experiment: CuTy: inhibition of dityrosine oligomerization. The series is classed as biochemical. The conditions noted are these: referenced to in-house standard (set as 100% inhibition).
Another series has as its target T1, Aβ 1-42 (Homo sapiens, UniProt P05067).
T1 construct: The reaction solutions contained Aβ 1-42 at concentrations
Briefly: Fluorometric H2O2 assay (inhibition of Abeta H2O2 production). It is filed as biochemical. The conditions noted are these: concentration required to inhibit 50% of Abeta H2O2 production; read-out: H2O2 IC50. The essentials:
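Copper-dependent Aβ H2O2 production measured fluorometrically with deacetylated dichlorofluorescein plus HRP in PBS, pH 7.4. Incubation 60 min at 37 C, test compound included in wells. H2O2 quantified against H2O2 standards.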

Series [5] deals with T2, Abeta:Zn (25:50 μM) Synthetic Aggregations (Homo sapiens, UniProt P05067).
T2 construct: PB Compound Mediated Dissolution of Aggregated Abeta 1-42; purchased Keck Laboratory, Yale University School of Medicine
As to the kind of experiment: Disaggregation of Abeta:Zn synthetic aggregates (ThT fluorescence). It is filed as biochemical. Particulars: for Disaggregation % Aggregate reduction at 5 μM: 5 μM test compound; for EC50: Abeta:Zn 25:50 μM aggregates. The essentials: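 Abeta1-42 (25 μM) with ZnCl2 (50 μM) and ThT (50 μM) in PBS pH 6.6 was preaggregated 24 h at 37 degrees with rotation. Aggregates were then exposed to compound (final 1-50 μM, DMSO) for 2 h at 37 degrees. ThT fluorescence was read at ex 450/em 480 nm.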

Series [6] deals with primary cortical neuronal cultured cells. Briefly: Test compound cytotoxicity, MTS assay, primary cortical neuronal cultures. The series is classed as cell-based, mouse. Particulars: for Cytotox (% viable) Neuronal cells at 1 μM: 1 μM test compound; for Cytotox (% viable) Neuronal cells at 10 μM: 10 μM test compound. Summed up:
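Primary cortical neurons were cultured five days in Neurobasal/B27, then exposed on day six to compounds (from 2.5 mM DMSO stocks) in medium minus antioxidants, in triplicate for 4 days at 37° C. Viability was measured by MTS, 2 h at 37° C, absorbance at 560 nm.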
For orientation: Formazan colour is commonly taken as a measure of viable cells.

This is an account of results in US9163018B2, “Method of treatment of age-related macular degeneration (AMD)” (Prana Biotechnology Limited, priority 2006, dated 2015).

Some results are limits rather than exact numbers.

T2 sequence (P05067 672-713 limits assumed): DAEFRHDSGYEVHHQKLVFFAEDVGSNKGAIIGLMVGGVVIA
T1 sequence (P05067 672-713 limits assumed): as above

Usually IC50 stands for the concentration that gives 50% inhibition. By EC50 is commonly meant the midpoint of the concentration-response curve. The low end stands for an effect from little substance, the high end for a need for much substance. `O=c1c2ccc(I)c(O)c2ncn1CC1CC1` [PB 1120]: in the series with Aβ deposits, the “Tg Mice % difference from control in Amyloid plaque abundance” value is “Decrease”, the “Tg Mice % difference from control in insoluble brain amyloid burden” value is “No change” and the “Tg Mice % difference from control in soluble brain amyloid burden” value is reported as “No change”. Moreover, the “Toxicity at 30 mg/kg” value in series [1] is listed as 10 days, none. Also, the Mice plasma concentration entry in series [2] is given as “Up to 2508 ng/ mL ng/mL”. For the same molecule, in series [3], the “Cytotox (% viable) M17 cells at 1 μM” value is given as 106.9% and the “Cytotox (% viable) M17 cells at 10 μM” value is recorded as 62%. Further, in series [4], the “CuTy % inhibition of dityrosine oligomerization” value (“CuTy % inhibition” for short) is on record as “CuTy: 25% inhibition”. For the same molecule, the IC50 at Aβ 1-42 amounted to 280 nM. Besides, in series [5], the “Disaggregation % Aggregate reduction at 5 μM” value turned out to be 47.5% and a half-maximal response (EC50) required 5600 nM.
As for `CCc1cnc2c(O)c(I)ccn2c1=O` [PB 1127], the “Tg Mice effect on brain amyloid burden and plaque at 10 mg/kg” value in the series with Aβ deposits (daily oral gavage 10 mg/kg) is given as “At 10 mg/kg No effect”. Moreover, the “Toxicity at 10 mg/kg” value in series [1] (10 mg/kg) is on record as “At 10 mg/kg 10 days, none”. For the same molecule, in series [2] (oral dose 10 mg/kg), the “Mice plasma concentration at 10 mg/kg” value is on record as “At 10 mg/kg: Up to 7082 ng/ mL ng/mL”. Moreover, in series [3], the “Cytotox (% viable) M17 cells at 1 μM” value stood at 82.5% and the “Cytotox (% viable) M17 cells at 10 μM” value is 23.3%. Besides, the “CuTy % inhibition” value in series [4] was 25% inhibit. Also, the concentration for half-maximal inhibition (IC50) at Aβ 1-42 turned out to be 280 nM. In series [5], the “Disaggregation % Aggregate reduction at 5 μM” value was 55% and it took 4500 nM to reach a half-maximal effect (EC50).
With `Br.CNCc1nc2c(O)c(Cl)cc(Cl)c2c(=O)n1C` [PB 1161], in the series with Aβ deposits, the “Tg Mice % difference from control in Amyloid plaque abundance” value is −64%, the “Tg Mice % difference from control in insoluble brain amyloid burden” value is “No change” and the “Tg Mice % difference from control in soluble brain amyloid burden” value is on record as “No change”. Also, the “Toxicity at 30 mg/kg” value in series [1] is recorded as 10 days, none. For the same molecule, in series [2], the Mice plasma concentration entry is “Up to 510.4 ng/mL”. In series [3], the “Cytotox (% viable) M17 cells at 1 μM” value was found to be 101.4% and the “Cytotox (% viable) M17 cells at 10 μM” value is given as 112.5%. Further, in series [4], the “CuTy % inhibition” value came out at 100% inhib. Also, in series [6], the “Cytotox (% viable) Neuronal cells at 1 μM” value was found to be 105.4% and the “Cytotox (% viable) Neuronal cells at 10 μM” value came out at 103.9%. In series [5], the “Disaggregation % Aggregate reduction at 5 μM” value was determined as 27% and the EC50 was > 20000 nM.
Consider `O=c1c2c(Cl)cc(Cl)c(O)c2ncn1Cc1ccn2ccnc2c1` [PB 1252], for which the “Toxicity at 30 mg/kg” value in series [1] is recorded as 10 days, none. In series [2], the Mice plasma concentration result is given as “Up to 1465.4 ng/mL”. Besides, in series [3], the “Cytotox (% viable) M17 cells at 1 μM” value amounted to 105.4% and the “Cytotox (% viable) M17 cells at 10 μM” value stood at 105.1%. Moreover, the “CuTy % inhibition” value in series [4] is on record as “CuTy: 50% inhibition”. On Aβ 1-42, the IC50 worked out at 720 nM. In series [6], the “Cytotox (% viable) Neuronal cells at 1 μM” value was determined as 94.6% and the “Cytotox (% viable) Neuronal cells at 10 μM” value came out at 103.1%.
`O=C(O)CCCn1cnc2c(O)c(Cl)cc(Cl)c2c1=O` [PB 1255]: the “Toxicity at 30 mg/kg” value in series [1] is listed as 10 days, none. Further, in series [2], the Mice plasma concentration result was “Up to 17008 ng/ mL ng/mL”. Moreover, in series [3], the “Cytotox (% viable) M17 cells at 1 μM” value is recorded as 109.7% and the “Cytotox (% viable) M17 cells at 10 μM” value came out at 102.9%. The “CuTy % inhibition” value in series [4] is “CuTy: 125% inhibition”. Moreover, the 50% inhibitory concentration (IC50) on Aβ 1-42 is 930 nM. Besides, in series [6], the “Cytotox (% viable) Neuronal cells at 1 μM” value was 97.9% and the “Cytotox (% viable) Neuronal cells at 10 μM” value amounted to 98.0%.
In the case of `Cn1nccc1-n1cnc2c(O)c(Cl)cc(Cl)c2c1=O` [PB 1262], the “Toxicity at 30 mg/kg” value in series [1] is on record as 10 days, none (16/11/05). Besides, in series [2], the Mice plasma concentration result is reported as “Up to 7107 ng/ mL ng/mL”. In series [3], the “Cytotox (% viable) M17 cells at 1 μM” value is 106.5% and the “Cytotox (% viable) M17 cells at 10 μM” value worked out at 94.2%. Moreover, the “CuTy % inhibition” value in series [4] is reported as “CuTy No effect”. Moreover, on Aβ 1-42, the IC50 worked out at 940 nM. In series [6], the “Cytotox (% viable) Neuronal cells at 1 μM” value is 104.6% and the “Cytotox (% viable) Neuronal cells at 10 μM” value came out at 83.7%.
For the molecule `O=c1c2c(Cl)cc(Cl)c(O)c2ncn1CC1CC1` [PB-1076], in the series with Aβ deposits, the “Tg Mice % difference from control in Amyloid plaque abundance” value was −29%, the “Tg Mice % difference from control in insoluble brain amyloid burden” value was −26% and the “Tg Mice % difference from control in soluble brain amyloid burden” value is −37%. Also, the “Toxicity at 30 mg/kg” value in series [1] was 11 days, none. Besides, the Mice plasma concentration entry in series [2] is listed as “Up to 2698 ng/ mL in mice ng/mL”. Further, in series [3], the “Cytotox (% viable) M17 cells at 1 μM” value is 96.2% and the “Cytotox (% viable) M17 cells at 10 μM” value stood at 76.8%. Besides, the “CuTy % inhibition” value in series [4] was found to be 100% inhibit. Besides, in series [6], the “Cytotox (% viable) Neuronal cells at 1 μM” value came out at 116% and the “Cytotox (% viable) Neuronal cells at 10 μM” value was found to be 105%. In series [5], the “Disaggregation % Aggregate reduction at 5 μM” value is given as 15.1% and the EC50 is > 20000 nM.
As to `O=c1c2c(Cl)cc(Cl)c(O)c2ncn1Cc1ccccn1` [PB-1077], in the series on Aβ deposits, the “Tg Mice % difference from control in Amyloid plaque abundance” value is −30%, the “Tg Mice % difference from control in insoluble brain amyloid burden” value is recorded as “No change” and the “Tg Mice % difference from control in soluble brain amyloid burden” value is reported as “No change”. Besides, the “Toxicity at 30 mg/kg” value in series [1] is 10 days, none. In addition, the Mice plasma concentration entry in series [2] is given as “Up to 984 ng/ mL in mice ng/mL”. In addition, in series [3], the “Cytotox (% viable) M17 cells at 1 μM” value is 97.7% and the “Cytotox (% viable) M17 cells at 10 μM” value is recorded as 91%. Further, the “CuTy % inhibition” value in series [4] is “CuTy: 50% inhibition”. In series [6], the “Cytotox (% viable) Neuronal cells at 1 μM” value amounted to 99% and the “Cytotox (% viable) Neuronal cells at 10 μM” value is recorded as 98%. Moreover, in series [5], the “Disaggregation % Aggregate reduction at 5 μM” value is reported as 24% and the EC50 was > 20000 nM.
For the molecule `Cc1nc(Cn2cnc3c(O)c(Cl)cc(Cl)c3c2=O)cs1` [PB-1084], in the series with Aβ deposits, the “Tg Mice % difference from control in Amyloid plaque abundance” value is “decrease”, the “Tg Mice % difference from control in insoluble brain amyloid burden” value is listed as “No change” and the “Tg Mice % difference from control in soluble brain amyloid burden” value is on record as −29%. For the same molecule, the “Toxicity at 30 mg/kg” value in series [1] was 10 days, none. Moreover, the Mice plasma concentration result in series [2] is reported as “Up to 2439 ng/ mL ng/mL”. Also, in series [3], the “Cytotox (% viable) M17 cells at 1 μM” value was 97% and the “Cytotox (% viable) M17 cells at 10 μM” value is given as 95.7%. In addition, the “CuTy % inhibition” value in series [4] is recorded as “CuTy: 75% inhibition”. In series [6], the “Cytotox (% viable) Neuronal cells at 1 μM” value is 100% and the “Cytotox (% viable) Neuronal cells at 10 μM” value was 93%. In series [5], the “Disaggregation % Aggregate reduction at 5 μM” value was 23.4% and it took 40700 nM to reach a half-maximal effect (EC50).
For the molecule `Cc1noc(C)c1Cn1cnc2c(O)c(Cl)cc(Cl)c2c1=O` [PB-1085], in the series with Aβ deposits, the “Tg Mice % difference from control in Amyloid plaque abundance” value is reported as −43%, the “Tg Mice % difference from control in insoluble brain amyloid burden” value is −34% and the “Tg Mice % difference from control in soluble brain amyloid burden” value was “increase”. The “Toxicity at 30 mg/kg” value in series [1] is 10 days, none. The Mice plasma concentration result in series [2] is recorded as “Up to 3644 ng/ mL ng/mL”. Moreover, in series [3], the “Cytotox (% viable) M17 cells at 1 μM” value turned out to be 104.9% and the “Cytotox (% viable) M17 cells at 10 μM” value was 76.2%. Besides, the “CuTy % inhibition” value in series [4] was “CuTy: 90% inhibition”. Moreover, in series [6], the “Cytotox (% viable) Neuronal cells at 1 μM” value is reported as 99% and the “Cytotox (% viable) Neuronal cells at 10 μM” value amounted to 72%. In series [5], the “Disaggregation % Aggregate reduction at 5 μM” value is listed as 25% and the EC50 was > 20000 nM.
